Some test systems named below: SR leukemia; RXF 393 renal; CAKI-1 renal; MOLT-4 leukemia; MALME-3M melanoma; ACHN renal; OVCAR-3 ovarian; EKVX NSCLC; OVCAR-5 ovarian; SW-620 colon.
Common to all, as to test: NCI tumour cell line growth inhibition, 48 h

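Assay format: 96-well plates, 48-hour exposure. Abbreviation: GI50, concentration required for 50% inhibition of growth. TGI: total growth inhibition.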

Consider ten compounds from PubChem BioAssay (NCI).

`COCCOc1ccc(-c2nc3ccc(-c4nc5ccc(N6CCN(C)CC6)cc5[nH]4)cc3[nH]2)cc1`: the GI50 in the test with SR leukemia is 0.5 µM; with RXF 393 renal, 1.8 µM; in the test on CAKI-1 renal, 2.25 µM; in the test with MOLT-4 leukemia, 2.81 µM; in the test on MALME-3M melanoma it was 0.165 µM; in the test with ACHN renal it was 10.7 µM. Further, the GI50 was 0.621 µM in the test with OVCAR-3 ovarian, 6.56 µM in the test on EKVX NSCLC, 3.59 µM in the test on OVCAR-5 ovarian and 0.9 µM in the test on SW-620 colon. Moreover, the TGI with SR leukemia is 21.9 µM; with RXF 393 renal, 3.63 µM; with CAKI-1 renal, greater than 100 µM; in the test on MOLT-4 leukemia, greater than 100 µM; with MALME-3M melanoma, 1.55 µM; with ACHN renal, greater than 100 µM. Further, the TGI is 3.13 µM in the test on OVCAR-3 ovarian, 46.3 µM in the test on EKVX NSCLC, 9.97 µM with OVCAR-5 ovarian and 4.59 µM in the test with SW-620 colon.
Regarding `COc1cccc(C2SC(N)=Nc3c2c(C)nn3C(=O)c2ccccc2O)c1` (stereo not given), the TGI in the test with SR leukemia was greater than 7.36 µM; in the test with RXF 393 renal, greater than 10 µM; in the test on CAKI-1 renal, greater than 10 µM; with MOLT-4 leukemia it was greater than 10 µM; with MALME-3M melanoma, greater than 10 µM; with ACHN renal, greater than 10 µM. The TGI in the test with OVCAR-3 ovarian is greater than 7.61 µM; with EKVX NSCLC, greater than 10 µM; in the test on OVCAR-5 ovarian, greater than 10 µM; in the test on SW-620 colon, greater than 10 µM.
Regarding `CN1CC[C@@H](NC(=O)Nc2ccc(C#N)cc2)C[C@@H]1c1nc2ccccc2[nH]1`, the GI50 in the test on SR leukemia is 48.2 µM; in the test with RXF 393 renal it was 40.5 µM; in the test with CAKI-1 renal it was greater than 100 µM; with MOLT-4 leukemia, 55.6 µM; with MALME-3M melanoma, greater than 100 µM; with ACHN renal it was greater than 86.5 µM. For the same compound, the GI50 in the test with OVCAR-3 ovarian, in the test with EKVX NSCLC, in the test with OVCAR-5 ovarian and in the test on SW-620 colon was greater than 100 µM throughout. The TGI with SR leukemia, in the test with RXF 393 renal, in the test with CAKI-1 renal, in the test on MOLT-4 leukemia, with MALME-3M melanoma and in the test with ACHN renal was greater than 100 µM throughout. Further, the TGI in the test on OVCAR-3 ovarian, with EKVX NSCLC, in the test on OVCAR-5 ovarian and in the test on SW-620 colon was greater than 100 µM in each case.
As for `C=CC[C@H](C[C@H](C[C@H](C[C@H](C[C@H](C[C@H](C[C@H](C[C@H](C[C@H](C[C@H](CCCCC)OC)OC)OC)OC)OC)OC)OC)OC)OC)OC`, the TGI with SR leukemia, in the test on RXF 393 renal, with CAKI-1 renal, with MOLT-4 leukemia, in the test with MALME-3M melanoma and with ACHN renal was greater than 100 µM throughout. Besides, the TGI in the test with OVCAR-3 ovarian, in the test on EKVX NSCLC, with OVCAR-5 ovarian and in the test on SW-620 colon was greater than 100 µM each time.
Turning to `O=C(/C=C/c1ccc(O)cc1)c1ccc(O)cc1`, the TGI is 51.3 µM in the test on SR leukemia; 50.1 µM in the test with RXF 393 renal; 37.9 µM with CAKI-1 renal; 82.3 µM with MOLT-4 leukemia; 70 µM with MALME-3M melanoma; greater than 74.3 µM in the test with ACHN renal. For the same compound, the TGI was 52.1 µM with OVCAR-3 ovarian, 97.1 µM with EKVX NSCLC, greater than 76.3 µM in the test with OVCAR-5 ovarian and 57.9 µM in the test on SW-620 colon.
As for `Cc1ccc(/C=C/C(=O)c2cccc3ccccc23)cc1`, the TGI in the test with SR leukemia is 78.2 µM; with RXF 393 renal, 26.2 µM; in the test on CAKI-1 renal, 32.8 µM; in the test with MOLT-4 leukemia, 67.6 µM; in the test with MALME-3M melanoma it was 28.6 µM; with ACHN renal, 30.7 µM. Besides, the TGI in the test on OVCAR-3 ovarian turned out to be 31.7 µM; with EKVX NSCLC, 34 µM; with OVCAR-5 ovarian, 27.5 µM; in the test with SW-620 colon it was 26.2 µM.
Consider `COc1ccc2nc3cc(Cl)ccc3c(NCCNCC(C)O)c2c1` (stereo not given), for which the GI50 was 1.09 µM in the test on SR leukemia; 1.61 µM in the test with RXF 393 renal; 1.57 µM in the test on CAKI-1 renal; 0.512 µM in the test with MOLT-4 leukemia; 1.82 µM in the test on MALME-3M melanoma; 1.43 µM in the test with ACHN renal. In addition, the GI50 in the test with OVCAR-3 ovarian was 2.38 µM; in the test with EKVX NSCLC, 2.6 µM; in the test with OVCAR-5 ovarian, 1.67 µM; in the test on SW-620 colon it was 0.818 µM. The TGI in the test on SR leukemia stood at 8.04 µM; in the test on RXF 393 renal it was 3.37 µM; with CAKI-1 renal, 4.54 µM; in the test on MOLT-4 leukemia, 11.1 µM; in the test with MALME-3M melanoma, 3.68 µM; in the test with ACHN renal, 7.22 µM. For the same compound, the TGI amounted to 8.04 µM in the test on OVCAR-3 ovarian, 10.7 µM in the test with EKVX NSCLC, 6.3 µM with OVCAR-5 ovarian and 10.3 µM in the test with SW-620 colon.
Consider `O=C1CN(c2cccc(Cl)c2)C(=O)CN1CCN1CC(=O)N(c2cccc(Cl)c2)CC1=O`, for which the TGI in the test with SR leukemia, in the test with RXF 393 renal, in the test on CAKI-1 renal, in the test on MOLT-4 leukemia, with MALME-3M melanoma and in the test on ACHN renal was greater than 100 µM each time. The TGI with OVCAR-3 ovarian, in the test with EKVX NSCLC, in the test on OVCAR-5 ovarian and with SW-620 colon was greater than 100 µM each time.
Turning to `CC(=O)CC(OC(C)=O)C1=CCC2C(CC1C)OC(=O)C2C` (stereo not given), the TGI in the test on SR leukemia, in the test with RXF 393 renal, in the test on CAKI-1 renal, in the test on MOLT-4 leukemia, in the test on MALME-3M melanoma and in the test with ACHN renal was greater than 100 µM throughout. Moreover, the TGI in the test with OVCAR-3 ovarian, with EKVX NSCLC, with OVCAR-5 ovarian and in the test with SW-620 colon was greater than 100 µM throughout.
In the case of `CCCCCCCCCCn1cc[n+](C)c1`, the GI50 in the test with SR leukemia is 0.163 µM; in the test with RXF 393 renal, 2.94 µM; with CAKI-1 renal, 1.79 µM; in the test with MOLT-4 leukemia it was 2.9 µM; in the test with MALME-3M melanoma, 2.26 µM; in the test with ACHN renal it was 3.38 µM. The GI50 in the test on OVCAR-3 ovarian was 1.94 µM; in the test with EKVX NSCLC, 0.536 µM; in the test on OVCAR-5 ovarian, 2.93 µM; with SW-620 colon it was 3.3 µM. Further, the TGI with SR leukemia was 4.16 µM; in the test on RXF 393 renal it was 14.2 µM; in the test on CAKI-1 renal, 23.5 µM; in the test with MOLT-4 leukemia, 29 µM; with MALME-3M melanoma, 17.6 µM; in the test on ACHN renal it was greater than 49.2 µM. Further, the TGI in the test on OVCAR-3 ovarian is 8.59 µM; in the test with EKVX NSCLC it was 11.6 µM; in the test with OVCAR-5 ovarian, greater than 100 µM; with SW-620 colon, 33 µM.
